Pest or weed control data for 11 compounds are collected here from patent publication US20220046923A1, “HERBICIDAL CINNOLINIUM COMPOUNDS” (SYNGENTA CROP PROTECTION AG, priority 2018, published 2022).

What all share (assay): Post-emergence efficacy, glasshouse spray test
What all share (format): in vivo

In one assay the test system is Setaria faberi (SETFA). Particulars: Setaria faberi, post-emergence, 312 h, evaluated after 13 days, read-out: Control of weed species SETFA after post-emergence application (100=total damage to plant; 0=no damage to plant); for pest or weed control at 1000 g/ha: application rate 1000 g/Ha; for pest or weed control at 500 g/ha: application rate 500 g/Ha. As to the method: (§1) Seeds of a variety of test species were sown in standard soil in pots. After cultivation for 14 days (post-emergence) under controlled conditions in a glasshouse (at 24/16° C., day/night; 14 hours light; 65% humidity), the plants were sprayed with an aqueous spray solution derived from the dissolution of the technical active ingredient formula (I) in a small amount of acetone and a special solvent and emulsifier mixture referred to as IF50 (11.12% Emulsogen EL360 TM+44.44% N-methylpyrrolidone+44.44% Dowanol DPM glycol ether), to create a 50 g/l solution which was then diluted to required concentration using 0.25% or 1% Empicol ESC70 (Sodium lauryl ether sulphate)+1% ammonium sulphate as diluent. The test plants were then grown in a glasshouse under controlled conditions (at 24/16° C., day/night; 14 hours light; 65% humidity) and watered twice daily. After 13 days the test was evaluated (100=total damage to plant; 0=no damage to plant).
(§2) Ipomoea hederacea (IPOHE), Euphorbia heterophylla (EPHHL), Chenopodium album (CHEAL), Amaranthus palmeri (AMAPA), Lolium perenne (LOLPE), Digitaria sanguinalis (DIGSA), Eleusine indica (ELEIN), Echinochloa crus-galli (ECHCG), Setaria faberi (SETFA)

In assay [1] the test system is Ipomoea hederacea (IPOHE). Conditions: Ipomoea hederacea, post-emergence, 312 h, evaluated after 13 days, read-out: Control of weed species IPOHE after post-emergence application (100=total damage to plant; 0=no damage to plant); for pest or weed control at 1000 g/ha: application rate 1000 g/Ha; for pest or weed control at 500 g/ha: application rate 500 g/Ha. As to the method: as §1, §2

For a further assay, the system named is Lolium perenne (LOLPE). Particulars: Lolium perenne, post-emergence, 312 h, evaluated after 13 days, read-out: Control of weed species LOLPE after post-emergence application (100=total damage to plant; 0=no damage to plant); for pest or weed control at 1000 g/ha: application rate 1000 g/Ha; for pest or weed control at 500 g/ha: application rate 500 g/Ha. As to the method: as §1, §2

Assay [2] deals with Digitaria sanguinalis (DIGSA). Particulars: Digitaria sanguinalis, post-emergence, 312 h, evaluated after 13 days, read-out: Control of weed species DIGSA after post-emergence application (100=total damage to plant; 0=no damage to plant); for pest or weed control at 1000 g/ha: application rate 1000 g/Ha; for pest or weed control at 500 g/ha: application rate 500 g/Ha. How it is done: as §1, §2

In assay [3] the test system is Echinochloa crus-galli (ECHCG). Particulars: Echinochloa crus-galli, post-emergence, 312 h, evaluated after 13 days, read-out: Control of weed species ECHCG after post-emergence application (100=total damage to plant; 0=no damage to plant); for pest or weed control at 1000 g/ha: application rate 1000 g/Ha; for pest or weed control at 500 g/ha: application rate 500 g/Ha. As to the method: as §1, §2

Assay [4] concerns Euphorbia heterophylla (EPHHL). Particulars: Euphorbia heterophylla, post-emergence, 312 h, evaluated after 13 days, read-out: Control of weed species EPHHL after post-emergence application (100=total damage to plant; 0=no damage to plant); for pest or weed control at 1000 g/ha: application rate 1000 g/Ha; for pest or weed control at 500 g/ha: application rate 500 g/Ha. As to the method:
as §1, §2

A further assay has as its system Eleusine indica (ELEIN). Particulars: Eleusine indica, post-emergence, 312 h, evaluated after 13 days, read-out: Control of weed species ELEIN after post-emergence application (100=total damage to plant; 0=no damage to plant); for pest or weed control at 1000 g/ha: application rate 1000 g/Ha; for pest or weed control at 500 g/ha: application rate 500 g/Ha. As to the method:
as §1, §2

Assay [5] has as its system Chenopodium album (CHEAL). Conditions: Chenopodium album, post-emergence, 312 h, evaluated after 13 days, read-out: Control of weed species CHEAL after post-emergence application (100=total damage to plant; 0=no damage to plant); for pest or weed control at 1000 g/ha: application rate 1000 g/Ha; for pest or weed control at 500 g/ha: application rate 500 g/Ha. How it is done: as §1, §2

Molecules are shown by their SMILES.

In the case of `Cc1ccc2n[n+](CCS(=O)(=O)[O-])cc(C)c2c1` [Compound A33], the pest or weed control at 1000 g/ha in the assay with Setaria faberi (SETFA) was 40%; in assay [1], 30%; in the assay on Lolium perenne (LOLPE), 0%; in assay [2], 40%; in assay [3], 50%; in assay [4], 60%. Also, the pest or weed control at 1000 g/ha with Eleusine indica (ELEIN) stood at 30%; in assay [5], 10%.

For the compound `O=S(=O)([O-])CC[n+]1ccc2cc(Br)ccc2n1` [Compound A34], the pest or weed control at 1000 g/ha with Setaria faberi (SETFA) stood at 20%; in assay [1], 20%; with Lolium perenne (LOLPE), 10%; in assay [2] it was 40%; in assay [3], 40%; in assay [4] it was 40%. Besides, the pest or weed control at 1000 g/ha in the assay with Eleusine indica (ELEIN) is 30%; in assay [5] it was 20%.

Turning to `Cc1c[n+](CCS(=O)(=O)[O-])nc2c(C)cccc12` [Compound A35], the pest or weed control at 1000 g/ha with Setaria faberi (SETFA) came out at 0%; in assay [1] it was 20%; in the assay on Lolium perenne (LOLPE) it was 10%; in assay [2] it was 30%; in assay [3], 20%; in assay [4], 30%. In addition, the figures for the pest or weed control at 1000 g/ha (with Eleusine indica (ELEIN); in assay [5]) were 20% and 0%, respectively.

Take `Cc1cccc2cc[n+](CCS(=O)(=O)[O-])nc12` [Compound A36]: the pest or weed control at 1000 g/ha in the assay on Setaria faberi (SETFA) came to 40%; in assay [1], 30%; in the assay with Lolium perenne (LOLPE), 20%; in assay [2], 80%; in assay [3], 70%; in assay [4], 30%. For the same compound, the pest or weed control at 1000 g/ha in the assay on Eleusine indica (ELEIN) was 90%.

As to `O=C(O)c1cccc(C[n+]2ccc3ccccc3n2)c1` [Compound A91], the pest or weed control at 1000 g/ha was 20% in the assay on Setaria faberi (SETFA); 10% in assay [1]; 10% in the assay on Lolium perenne (LOLPE); 20% in assay [2]; 40% in assay [3]; 40% in assay [4]. Moreover, the pest or weed control at 1000 g/ha (with Eleusine indica (ELEIN); in assay [5]) was 20% each time.

Turning to `O=S(=O)(O)c1ccc(C[n+]2ccc3ccccc3n2)cc1` [Compound A92], the pest or weed control at 1000 g/ha was determined as 10% in the assay with Setaria faberi (SETFA); 40% in assay [1]; 10% in the assay on Lolium perenne (LOLPE); 20% in assay [2]; 30% in assay [3]; 50% in assay [4]. Moreover, the pest or weed control at 1000 g/ha worked out at 30% in the assay with Eleusine indica (ELEIN) and 0% in assay [5].

For the compound `CN(C)C(=O)c1ccc2n[n+](CCS(=O)(=O)[O-])ccc2c1` [Compound A101], the pest or weed control at 500 g/ha with Setaria faberi (SETFA) came to 70%; in assay [1], 40%; in the assay with Lolium perenne (LOLPE), 20%; in assay [2], 70%; in assay [3], 60%; in assay [4], 70%. The pest or weed control at 500 g/ha was determined as 80% in the assay on Eleusine indica (ELEIN) and 60% in assay [5].

For `CN(C)C(=O)c1cccc2cc[n+](CCS(=O)(=O)[O-])nc12` [Compound A102, 2-[8-(dimethylcarbamoyl)cinnolin-2-ium-2-yl]ethanesulfonate], the pest or weed control at 500 g/ha in the assay with Setaria faberi (SETFA) was 90%; in assay [1], 70%; in the assay on Lolium perenne (LOLPE), 30%; in assay [2], 80%; in assay [3], 70%; in assay [4], 60%. The pest or weed control at 500 g/ha (in the assay with Eleusine indica (ELEIN); in assay [5]) was 100% in each case.

On to `CC(=O)Nc1ccc2n[n+](CCS(=O)(=O)[O-])ccc2c1` [Compound A104], for which the pest or weed control at 125 g/ha in the assay with Setaria faberi (SETFA) (application rate 125 g/Ha) was 70%; in assay [1] (application rate 125 g/Ha), 10%; in the assay with Lolium perenne (LOLPE) (application rate 125 g/Ha), 20%; in assay [2] (application rate 125 g/Ha), 60%; in assay [3] (application rate 125 g/Ha), 60%; in assay [4] (application rate 125 g/Ha), 50%. In addition, the pest or weed control at 125 g/ha in the assay with Eleusine indica (ELEIN) (application rate 125 g/Ha) stood at 80%; in assay [5] (application rate 125 g/Ha), 30%.

As for `CC(=O)Nc1ccc2cc[n+](CCS(=O)(=O)[O-])nc2c1` [Compound A105], the pest or weed control at 500 g/ha in the assay on Setaria faberi (SETFA) stood at 70%; in assay [1] it was 20%; in the assay with Lolium perenne (LOLPE) it was 20%; in assay [2] it was 60%; in assay [3], 50%; in assay [4], 30%. Also, the pest or weed control at 500 g/ha in the assay with Eleusine indica (ELEIN) stood at 80%; in assay [5], 70%.

`CN(C)C(=O)c1ccc2cc[n+](CCS(=O)(=O)[O-])nc2c1` [Compound A106]: the pest or weed control at 500 g/ha with Setaria faberi (SETFA) was 100%; in assay [1], 20%; in the assay on Lolium perenne (LOLPE), 30%; in assay [2] it was 70%; in assay [3], 80%; in assay [4], 30%. Also, the pest or weed control at 500 g/ha with Eleusine indica (ELEIN) was 100%; in assay [5], 80%.
